Key:
Test in all cases: stopped-flow CO2 hydration
Format in all cases: biochemical
hCA II = molecular target: T1, hCA II (Homo sapiens, UniProt P00918); conditions: read-out: hCAII
T1 construct: gene CA2; recombinant, cytosolic isoform
Outline: (§1)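 Each recombinant human isozyme was held with inhibitor for 10 min at room temperature before a stopped-flow assay of CO2 hydration at 25 °C. The buffer was 10 mM Hepes pH 7.4 with 0.1 M Na2SO4 or NaClO4 and 0.2 mM Phenol Red read at 557 nm over 5–10 s, and CO2-saturated water served as substrate. Ki constants come from non-linear least-squares fits using the Cheng-Prusoff equation. At least seven inhibitor concentrations, the lowest 0.01 nM, were tested in triplicate, and values are means of at least three determinations.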

hCA IX = molecular target: T2, hCA IX (Homo sapiens, UniProt Q16790)
T2 construct: gene CA9; recombinant, transmembrane isoform
Outline: as §1

hCA IV = molecular target: T3, hCA IV (Homo sapiens, UniProt P22748)
T3 construct: gene CA4
Outline: as §1

hCA I = molecular target: T4, hCA I (Homo sapiens, UniProt P00915)
T4 construct: gene CA1; recombinant, cytosolic isoform
Outline: as §1

T4 sequence (P00915 2-261): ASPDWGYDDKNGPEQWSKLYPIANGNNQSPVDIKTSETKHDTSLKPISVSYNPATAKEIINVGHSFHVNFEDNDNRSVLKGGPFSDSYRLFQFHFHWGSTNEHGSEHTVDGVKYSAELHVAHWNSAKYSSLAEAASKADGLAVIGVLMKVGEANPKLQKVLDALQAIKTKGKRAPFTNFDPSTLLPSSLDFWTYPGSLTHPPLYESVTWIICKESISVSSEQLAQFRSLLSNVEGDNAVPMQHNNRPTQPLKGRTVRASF
T3 sequence (P22748 19-284): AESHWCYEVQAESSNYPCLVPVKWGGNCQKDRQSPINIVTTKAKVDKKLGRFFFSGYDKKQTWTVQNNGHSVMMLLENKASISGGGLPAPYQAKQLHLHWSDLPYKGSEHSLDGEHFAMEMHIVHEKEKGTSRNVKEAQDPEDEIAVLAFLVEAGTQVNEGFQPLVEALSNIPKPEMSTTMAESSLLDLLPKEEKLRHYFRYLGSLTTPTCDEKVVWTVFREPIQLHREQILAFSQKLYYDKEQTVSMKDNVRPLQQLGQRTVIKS

Ki (hCA II) [nM]	Ki (hCA IX) [nM]	Ki (hCA IV) [nM]	Ki (hCA I) [nM]	SMILES
372	71.5	515	696	NS(=O)(=O)c1cc(C(=O)NCc2cn(-c3ccc(Br)cc3)nn2)ccc1F [6t, N-((1–(4-bromophenyl)-1H-1,2,3-triazol-4-yl)methyl)-4-fluoro-3-sulfamoylbenzamide]
329	30.8	5310	426	NS(=O)(=O)c1cc(C(=O)NCc2cn(-c3cccc(F)c3)nn2)ccc1F [6q, 4-Fluoro-N-((1–(3-fluorophenyl)-1H-1,2,3-triazol-4-yl)methyl)-3-sulfamoylbenzamide]
56.5	41.6	80	86.7	COc1ccc(-n2cc(CNC(=O)c3ccc(Cl)c(S(N)(=O)=O)c3)nn2)cc1 [6k, 4-Chloro-N-((1–(4-methoxyphenyl)-1H-1,2,3-triazol-4-yl)methyl)-3-sulfamoylbenzamide]
51.4	212	2280	479	COc1cc(-n2cc(CNC(=O)c3ccc(Cl)c(S(N)(=O)=O)c3)nn2)cc(OC)c1OC [6j, 4-Chloro-3-sulfamoyl-N-((1–(3,4,5-trimethoxyphenyl)-1H-1,2,3-triazol-4-yl)methyl)-benzamide]
71.2	84.4	170	312	NS(=O)(=O)c1cc(C(=O)NCc2cn(-c3ccccc3)nn2)ccc1Cl [6i, 4-Chloro-N-((1-phenyl-1H-1,2,3-triazol-4-yl)methyl)-3-sulfamoylbenzamide]
165	816	429	747	C#CCNC(=O)c1ccc(F)c(S(N)(=O)=O)c1 [4c, 4-Fluoro-N-(prop-2-yn-1-yl)-3-sulfamoylbenzamide]

— PMC6598542, “Synthesis of a new series of 3-functionalised-1-phenyl-1,2,3-triazole sulfamoylbenzamides as carbonic anhydrase I, II, IV and IX inhibitors” (Journal of Enzyme Inhibition and Medicinal Chemistry, 2019)
